In patent publication US20250296958A1, “GL[…] E[…]” (THE ADMINISTRATORS OF THE TULANE EDUCATIONAL FUND, priority 2022, published 2025):
“Also recorded” adds a separate entry of the source. Where a SMILES comes first, the peptide text is derived from it. Bridges are numbered along the chain shown (N, C = ends). [ ]: non-standard residue; d: D form. The star is where a group is joined. ξ: configuration not given here. X1 = OC[C@H]1O[C@@H](O[C@H]2[C@H](O)[C@@H](O)[C@H](*)O[C@@H]2CO)[C@H](O)[C@@H](O)[C@H]1O; βGlc = OC[C@H]1O[C@@H](*)[C@H](O)[C@@H](O)[C@@H]1O; d1Nal = N[C@H](Cc1cccc2ccccc12)C(=O)O; ξ1Nal = NC(Cc1cccc2ccccc12)C(=O)O

Tests used:
mu opioid receptor (MOR) = molecular target: T1, mu opioid receptor (MOR) (Homo sapiens, UniProt P35372); experiment: Receptor binding, mu opioid receptor (NIMH PDSP); details: for reduction of MOR affinity by glycosylation: relative to unglycosylated reference; for MOR affinity, in words: comparison among analogs
T1 construct: NIMH Psychoactive Drug Screening Program (PDSP), University of North Carolina at Chapel Hill (performed the assay)
T1 sequence (P35372 whole entry): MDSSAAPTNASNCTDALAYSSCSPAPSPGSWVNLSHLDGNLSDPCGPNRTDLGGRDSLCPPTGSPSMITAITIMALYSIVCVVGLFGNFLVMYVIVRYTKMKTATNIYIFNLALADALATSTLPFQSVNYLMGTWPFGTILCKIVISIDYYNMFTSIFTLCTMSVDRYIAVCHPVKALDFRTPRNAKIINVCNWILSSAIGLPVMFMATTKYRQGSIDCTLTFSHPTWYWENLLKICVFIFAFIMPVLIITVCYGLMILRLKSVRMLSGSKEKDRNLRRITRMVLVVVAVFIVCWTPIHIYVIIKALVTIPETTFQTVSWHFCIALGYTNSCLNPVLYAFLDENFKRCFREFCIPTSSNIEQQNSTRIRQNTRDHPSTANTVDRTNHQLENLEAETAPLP
Excerpt: (§1) Receptor Binding Profiles and Ki: The receptor binding an Ki determinations were generously provided by the National Institute of Mental Health's Psychoactive Drug Screening Program (PDSP), Directed by Bryan L. Roth at the University of North Carolina at Chapel Hill and Project Officer Jamie Driscoll at NIMH, Bethesda MD, USA.

[1] = tested on: male and female CD-1 mice; experiment: Tail flick (TF) antinociception test; assay type: in vivo; details: for rank order of effectiveness, TF AUC: main effects of drug; for rank order of potency (ED50), TF: mg/kg calculations; for TF antinociception AUC: top dose (5.6 mg/kg), mean male and female
Description: Tail Flick (TF): CD1 mice were used for this test. The latency to withdraw the tail from a heat source was automatically measured (IITC, Woodland Hills, CA). […] Percent Maximum Possible Effect (% MPE) was determined as [(latency-baseline latency)/(9-baseline latency)]*100.
Statistics/Data Analysis: Data were analyzed with […] PRISM software (GraphPad Software, San Diego CA).

male and female DBA mice = experiment: Hot plate (HP) antinociception test; details: for rank order of potency (ED50), HP: both mg/kg and μmol/kg values; for HP antinociception, in words: s.c., 5 hr test
[2] = molecular target: T2, delta opioid receptor (DOR) (Homo sapiens, UniProt P41143); experiment: Receptor binding, delta opioid receptor (NIMH PDSP)
T2 construct: NIMH Psychoactive Drug Screening Program (PDSP), University of North Carolina at Chapel Hill (performed the assay)
T2 sequence (P41143 whole entry): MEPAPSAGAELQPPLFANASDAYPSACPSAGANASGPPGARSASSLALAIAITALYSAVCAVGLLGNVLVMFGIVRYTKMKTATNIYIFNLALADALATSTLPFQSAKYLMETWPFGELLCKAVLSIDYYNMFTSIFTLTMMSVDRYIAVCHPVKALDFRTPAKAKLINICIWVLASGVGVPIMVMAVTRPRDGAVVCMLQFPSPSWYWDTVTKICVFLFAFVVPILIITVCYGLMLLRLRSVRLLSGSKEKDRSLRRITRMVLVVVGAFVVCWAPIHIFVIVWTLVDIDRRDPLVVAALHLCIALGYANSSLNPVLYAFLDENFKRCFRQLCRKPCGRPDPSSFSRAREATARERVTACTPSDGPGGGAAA
Excerpt: as §1

[3] = molecular target: T3, kappa opioid receptor (KOR) (Homo sapiens, UniProt P41145); experiment: Receptor binding, kappa opioid receptor (NIMH PDSP); details: for kap/mu: ratio of KOR-to-MOR binding (Ki)
T3 construct: NIMH Psychoactive Drug Screening Program (PDSP), University of North Carolina at Chapel Hill (performed the assay)
T3 sequence (P41145 whole entry): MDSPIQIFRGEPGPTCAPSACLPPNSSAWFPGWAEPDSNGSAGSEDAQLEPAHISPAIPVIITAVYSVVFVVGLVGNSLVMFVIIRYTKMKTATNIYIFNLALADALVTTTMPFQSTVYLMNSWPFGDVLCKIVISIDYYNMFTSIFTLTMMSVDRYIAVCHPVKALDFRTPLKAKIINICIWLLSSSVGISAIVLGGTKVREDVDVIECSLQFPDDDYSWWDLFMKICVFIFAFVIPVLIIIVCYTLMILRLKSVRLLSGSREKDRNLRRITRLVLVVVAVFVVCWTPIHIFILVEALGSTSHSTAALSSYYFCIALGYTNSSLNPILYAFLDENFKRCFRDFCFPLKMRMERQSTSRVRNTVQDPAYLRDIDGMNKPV
Excerpt: as §1

[4] = tested on: delta opioid receptor (DOR); experiment: Receptor binding, delta opioid receptor (NIMH PDSP); details: ratio of DOR-to-MOR binding (Ki)
Excerpt: as §1

[5] = i.v.; cited from earlier work
male CD-1 mice = experiment: Conditioned place preference (CPP)
Description: Conditioned Place Preference (CPP): Male CD-1 mice were tested for CPP in a modified 2-chamber apparatus (Noldus, Leesburg, VA). The 20×20 cm chambers had distinct visual and tactile cues: 1) vertical striped walls with circular holes in a metal floor or 2) gray walls with clover-shaped holes. […] Eight arenas were counterbalanced for the cue pattern in the left and right chamber. Tests were conducted in 4 phases: habituation (days 1-2, 30′), baseline (day 4-5, 20′), conditioning (days 6-8, 40′), and testing (day 9, 20′). Two sessions per day were conducted at each phase (9:30 and 10:30 am) and animals were placed in the left chamber in session 1 and the right in session 2. For baseline and testing, both chambers were freely accessible. […] These protocols balanced exposure to the chambers, and for conditioning, minimized drug carry-over effects. CPP was determined as the change in time spent on the drug-associated side minus the time spent on that same side during baseline tests.
After two habituation and two baseline sessions, three conditioning days were conducted. […] The following day, a test session was conducted and CPP was determined as the change in time spent on the drug-associated side minus the time spent on that same side during baseline tests.

Structure (SMILES)	reduction of MOR affinity by glycosylation (mu opioid receptor (MOR))	rank order of effectiveness, TF AUC [1]	rank order of potency (ED50), TF [1]	rank order of potency (ED50), HP (male and female DBA mice)	HP antinociception, in words (male and female DBA mice)	MOR affinity, in words (mu opioid receptor (MOR))	Ki [2] [nM]	KOR binding, in words [3]	DOR binding, in words [2]	del/mu [4]	kap/mu [3]	also measured
NC(=O)[C@H](CO[C@@H]1O[C@H](CO)[C@@H](O)[C@H](O)[C@H]1O)NC(=O)[C@@H]1CCC(=O)NCCCC[C@@H](NC(=O)[C@@H](N)Cc2ccc(O)cc2)C(=O)N[C@@H](Cc2c[nH]c3ccccc23)C(=O)N[C@@H](Cc2ccccc2)C(=O)N1 [Analog A1, Tyr-c[D-Lys-Trp-Phe-Glu]-Ser(β-Glc)-NH2]	approximately 5 fold	A2>A7>A1>morphine>ZH853	A2>A7>A1>morphine >ZH853	A2>A7>A1>ZH853>morphine	not significantly greater than those of reference compounds							
NC(=O)[C@H](CO[C@@H]1O[C@H](CO)[C@@H](O[C@@H]2O[C@H](CO)[C@H](O)[C@H](O)[C@H]2O)[C@H](O)[C@H]1O)NC(=O)[C@@H]1CCC(=O)NCCCC[C@@H](NC(=O)[C@@H](N)Cc2ccc(O)cc2)C(=O)N[C@@H](Cc2c[nH]c3ccccc23)C(=O)N[C@@H](Cc2ccccc2)C(=O)N1 [Analog A2, Tyr-c[D-Lys-Trp-Phe-Glu]-Ser(β-Lact)-NH2]	approximately 5 fold	A2>A7>A1>morphine>ZH853	A2>A7>A1>morphine >ZH853	A2>A7>A1>ZH853>morphine	robust antinociception; also recorded: significantly greater AUC							TF antinociception (full) ([1]; 1.8 mg/kg): 100 % MPE; dose lower than morphine for equal total TF antinociception, mg/kg basis ([1]; 1.8 mg/kg A2 matched to 10 mg/kg morphine): 5.55 fold; TF antinociception, in words ([1]; s.c., time course and AUC): remained high at the 5-hour limit of the test; TF antinociception AUC [1]: > 25000
NC(=O)[C@H](CO[C@@H]1O[C@H](CO)[C@@H](O)[C@H](O)[C@H]1O)NC(=O)CNC(=O)[C@@H]1CCC(=O)NCCCC[C@@H](NC(=O)[C@@H](N)Cc2ccc(O)cc2)C(=O)N[C@@H](Cc2c[nH]c3ccccc23)C(=O)N[C@@H](Cc2ccccc2)C(=O)N1 [Analog A3]						lowest MOR affinity	≥ 10000	increased KOR affinity				
NC(=O)[C@H](CO[C@@H]1O[C@H](CO)[C@@H](O)[C@H](O)[C@H]1O)NC(=O)[C@@H]1CCC(=O)NCCCC[C@@H](NC(=O)[C@@H](N)Cc2ccc(O)cc2)C(=O)N[C@H](Cc2cccc3ccccc23)C(=O)N[C@@H](Cc2ccccc2)C(=O)N1 [Analog A4] (H-Y[dK][d1Nal]FES(βGlc)-NH2; lactam 2-5)							≥ 10000	eliminated delta and kappa binding	eliminated delta and kappa binding	157	157	Ki (mu opioid receptor (MOR)): 63.5 nM; additional reduction of MOR binding by D-Nal substitution of Trp at position 3 (mu opioid receptor (MOR)): 11 fold; Ki [3]: ≥ 10000 nM
NC(=O)[C@H](CO[C@@H]1O[C@H](CO)[C@@H](O[C@@H]2O[C@H](CO)[C@H](O)[C@H](O)[C@H]2O)[C@H](O)[C@H]1O)NC(=O)[C@@H]1CCC(=O)NCCCC[C@@H](NC(=O)[C@@H](N)Cc2ccc(O)cc2)C(=O)N[C@H](Cc2cccc3ccccc23)C(=O)N[C@@H](Cc2ccccc2)C(=O)N1 [Analog A5] (H-Y[dK][d1Nal]FES(X1)-NH2; lactam 2-5)							≥ 10000	eliminated delta and kappa binding	eliminated delta and kappa binding	181	181	Ki (mu opioid receptor (MOR)): 55.2 nM; additional reduction of MOR binding by D-Nal substitution of Trp at position 3 (mu opioid receptor (MOR)): 11 fold; Ki [3]: ≥ 10000 nM
NC(=O)[C@H](CO[C@@H]1O[C@H](CO)[C@@H](O)[C@H](O)[C@H]1O)NC(=O)[C@@H]1CCC(=O)NCCCC[C@@H](NC(=O)[C@@H](N)Cc2ccc(O)cc2)C(=O)NC(Cc2cccc3ccccc23)C(=O)N[C@@H](Cc2ccccc2)C(=O)N1 (some centres unmarked) [Analog A6] (H-Y[dK][ξ1Nal]FES(βGlc)-NH2; lactam 2-5)	approximately 5 fold					did not reduce MOR affinity		increased KOR affinity		57	48	MOR selectivity, in words (mu opioid receptor (MOR); versus DOR and KOR): least selective compound
NC(=O)[C@H](CO[C@@H]1O[C@H](CO)[C@@H](O)[C@H](O)[C@H]1O)NC(=O)[C@H](CO[C@@H]1O[C@H](CO)[C@@H](O)[C@H](O)[C@H]1O)NC(=O)[C@@H]1CCC(=O)NCCCC[C@@H](NC(=O)[C@@H](N)Cc2ccc(O)cc2)C(=O)N[C@@H](Cc2c[nH]c3ccccc23)C(=O)N[C@@H](Cc2ccccc2)C(=O)N1 [Analog A7, Tyr-c[D-Lys-Trp-Phe-Glu]-Ser(β-Glc)-Ser(β-Glc)-NH2]	approximately 5 fold	A2>A7>A1>morphine>ZH853	A2>A7>A1>morphine >ZH853	A2>A7>A1>ZH853>morphine	robust antinociception; also recorded: significantly greater AUC	did not change MOR affinity		below detectable levels	below detectable levels			greater HP effectiveness versus control compounds (AUC) (male and female DBA mice; 1.8 mg/kg vs 5.6 mg/kg for controls): approximately 3 fold
NC(=O)CNC(=O)[C@@H]1CCC(=O)NCCCC[C@@H](NC(=O)[C@@H](N)Cc2ccc(O)cc2)C(=O)N[C@@H](Cc2c[nH]c3ccccc23)C(=O)N[C@@H](Cc2ccccc2)C(=O)N1 [ZH853, reference compound]		A2>A7>A1>morphine>ZH853	A2>A7>A1>morphine >ZH853	A2>A7>A1>ZH853>morphine		subnanomolar Ki, showed the highest MOR affinity	271					time of peak response, TF ([1]; s.c.): 30 to 40 min; TF antinociception AUC [1]: 10000; morphine equivalence [5]: about 1
CN1CC[C@]23c4c5ccc(O)c4O[C@H]2[C@@H](O)C=C[C@H]3[C@H]1C5 [morphine, reference compound]			A2>A7>A1>morphine >ZH853	A2>A7>A1>ZH853>morphine								TF antinociception (full) ([1]; 10 mg/kg, n=6): 100 % MPE; time of peak response, TF ([1]; s.c.): 20 to 30 min; CPP versus vehicle (male CD-1 mice; 3.2 mg/kg, one-way analysis, p<0.01): greater than vehicle; conditioned place preference (CPP) (male CD-1 mice; 3 equiantinociceptive doses, s.c., n=12): produced CPP
